This passage reports T/C results from PubChem BioAssay AID306 (DTP/NCI, 2004).

SMILES strings stand for the structures. Where “and” joins values, the source holds several entries; their conditions need not be identical. Equal entries are not always repeated. Toxic doses and inconclusive results are not listed.

In the experiment the test system is BDF1 mice, L1210 Methyl-GAG-resistant leukemia, survival T/C. The experiment can be described thus: NCI In Vivo Anticancer Drug Screen. Data for tumor model L1210 Leukemia resistant to Methyl-GAG; NSC 32946 (subcutaneous) in B6D2F1 (BDF1) mice. To be noted: endpoint: mean survival time, schedule: Q01DX Z (ip), higher = longer survival. How it is done: The antitumor activity of compounds was measured in mice bearing transplantable tumors. Survival or tumor size were measured and the results are expressed as the measurement made in the treated group (T) divided by the measurement made in the vehicle treated control group (C). The tumor model used in this assay is L1210 Leukemia resistant to Methyl-GAG; NSC 32946 (subcutaneous) in B6D2F1 (BDF1) mice

Setting [1] is: dose: 62.5 mg/kg/injection, vehicle: carboxymethylcellulose (CMC).
Where [2] appears, read: dose: 125.0 mg/kg/injection, vehicle: carboxymethylcellulose (CMC).
The mark [3] stands for this setting: dose: 250.0 mg/kg/injection, vehicle: carboxymethylcellulose (CMC).
[4] abbreviates: dose: 500.0 mg/kg/injection, vehicle: carboxymethylcellulose (CMC).
Where [5] appears, read: dose: 2.5 mg/kg/injection, vehicle: carboxymethylcellulose (CMC).

With `CN(C)c1nc(N(C)C)nc(N(C)C)n1`, the T/C is, setting by setting: under setting [1], 100 % of control; under setting [2], 95 % of control; under setting [3], 100 % of control; under setting [4], 100 % of control; (dose: 1000.0 mg/kg/injection, vehicle: methylcellulose (MC)) 98 % of control.

Take `O=c1[nH]c(=O)n(C2CC(O)C(CO)O2)cc1I` (stereo unspecified): the T/C was 118 % of control under setting [1], 112 % of control under setting [2] and 117 % of control under setting [4].

In the case of `S=c1nc[nH]c2nc[nH]c12`, the T/C runs as follows: (dose: 12.5 mg/kg/injection, vehicle: other) 107 % of control; (dose: 37.5 mg/kg/injection, vehicle: other) 252 % of control; (dose: 50.0 mg/kg/injection, vehicle: other) 153 % of control and 192 % of control; (dose: 75.0 mg/kg/injection, vehicle: other) 157 % of control; (dose: 100.0 mg/kg/injection, vehicle: other) 164 % of control; (dose: 200.0 mg/kg/injection, vehicle: other) 97 % of control and 119 % of control. Further, under “dose: 300.0 mg/kg/injection, vehicle: other”, the T/C is 98 % of control.

As for `Nc1nc(SCc2ccccc2)c2[nH]cnc2n1`, the T/C by setting is: (dose: 6.25 mg/kg/injection, vehicle: carboxymethylcellulose (CMC)) 104 % of control; (dose: 12.5 mg/kg/injection, vehicle: carboxymethylcellulose (CMC)) 154 % of control.

As to `N=C(N)c1ccc(Nc2ccc(C(=N)N)cc2)cc1`, the T/C is 98 % of control and 102 % of control (dose: 3.1 mg/kg/injection, vehicle: methylcellulose (MC)); 107 % of control (dose: 6.25 mg/kg/injection, vehicle: methylcellulose (MC)); 93 % of control (dose: 6.3 mg/kg/injection, vehicle: methylcellulose (MC)); 97 % of control (dose: 12.5 mg/kg/injection, vehicle: methylcellulose (MC)).

`Nc1nc(=S)c2ncn(C3OC(CO)C(O)C3O)c2[nH]1` (stereo unspecified): the T/C by setting is: (dose: 0.16 mg/kg/injection, vehicle: carboxymethylcellulose (CMC)) 92 % of control; (dose: 0.31 mg/kg/injection, vehicle: carboxymethylcellulose (CMC)) 91 % of control; (dose: 0.62 mg/kg/injection, vehicle: carboxymethylcellulose (CMC)) 102 % of control; (dose: 1.25 mg/kg/injection, vehicle: carboxymethylcellulose (CMC)) 111 % of control; under setting [5], 152 % of control.

On to `CN(C)CC(=O)c1ccc(O)c(O)c1`, for which the T/C reads like this: (dose: 31.25 mg/kg/injection, vehicle: saline) 98 % of control; (dose: 62.5 mg/kg/injection, vehicle: saline) 96 % of control; (dose: 125.0 mg/kg/injection, vehicle: saline) 99 % of control; (dose: 250.0 mg/kg/injection, vehicle: saline) 99 % of control and 100 % of control; (dose: 500.0 mg/kg/injection, vehicle: saline) 97 % of control and 106 % of control.

Consider `O=C(Nc1ccc(C2=NCCN2)cc1)c1cccc(C(=O)Nc2ccc(C3=NCCN3)cc2)c1`, for which the T/C is, setting by setting: (dose: 1.2 mg/kg/injection, vehicle: water) 102 % of control; (dose: 2.4 mg/kg/injection, vehicle: water) 108 % of control; (dose: 9.4 mg/kg/injection, vehicle: water) 211 % of control; (dose: 12.5 mg/kg/injection, vehicle: water) 223 % of control; (dose: 18.8 mg/kg/injection, vehicle: water) 226 % of control; (dose: 25.0 mg/kg/injection, vehicle: water) 236 % of control. Further, the T/C runs as follows: (dose: 37.5 mg/kg/injection, vehicle: carboxymethylcellulose (CMC)) 202 % of control; (dose: 37.5 mg/kg/injection, vehicle: water) 287 % of control; (dose: 50.0 mg/kg/injection, vehicle: water) 113 % of control; (dose: 75.0 mg/kg/injection, vehicle: carboxymethylcellulose (CMC)) 224 % of control; (dose: 150.0 mg/kg/injection, vehicle: carboxymethylcellulose (CMC)) 247 % of control.

In the case of `O=CN(O)CC(=O)O`, the T/C reads like this: under setting [1], 108 % of control; under setting [2], 101 % of control; under setting [3], 101 % of control; under setting [4], 102 % of control and 110 % of control; (dose: 1000.0 mg/kg/injection, vehicle: carboxymethylcellulose (CMC)) 105 % of control.

Consider `CSCS(=O)C[C@H](CO)NC(=O)/C=C/c1c(C)[nH]c(=O)[nH]c1=O` (stereo partly specified), for which the T/C is, setting by setting: (dose: 0.06 mg/kg/injection, vehicle: saline) 97 % of control; (dose: 0.12 mg/kg/injection, vehicle: saline) 97 % of control; (dose: 0.25 mg/kg/injection, vehicle: saline) 106 % of control and 113 % of control; (dose: 0.5 mg/kg/injection, vehicle: saline) 112 % of control; (dose: 1.0 mg/kg/injection, vehicle: saline) 96 % of control.

Consider `COC12C(COC(N)=O)C3=C(C(=O)C(C)=C(N)C3=O)N1CC1C2N1C` (stereo unspecified), for which the T/C was 96 % of control under setting [5]; 103 % of control (dose: 5.0 mg/kg/injection, vehicle: carboxymethylcellulose (CMC)); 122 % of control (dose: 10.0 mg/kg/injection, vehicle: carboxymethylcellulose (CMC)); 88 % of control (dose: 20.0 mg/kg/injection, vehicle: carboxymethylcellulose (CMC)).
